Measurements published in patent US11345679B2, “Quaternary lactam compound and pharmaceutical use thereof” (SHANGHAI MEIYUE BIOTECH DEVELOPMENT CO., LTD., priority 2018, dated 2022).
Like-named read-outs stand apart in the source and are kept apart here.

Legend:
[1] = target: human FXIa protein (hFXIa) (Homo sapiens (Human), UniProt P03951); experiment: Enzyme activity assay in vitro (FXIa, S-2366 substrate); type: biochemical; conditions: absorbance at OD405nm
Experimental: II. Enzyme Activity Assay In Vitro
Method: the test compound was dissolved in 10 mM mother liquor with DMSO, and stored at −80° C. until use.

human plasma = experiment: Determination of activated partial thromboplastin time (APTT); type: biochemical
Experimental: 1. Determination of Activated Partial Thromboplastin Time (APTT)
1. Preparation of human plasma: human venous whole blood was collected and placed in 3.2% sodium citrate anticoagulation tube (human blood: sodium citrate=9:1 (V/V)). The tube was centrifuged at ˜1560 g for 8 min, to obtain human plasma.
2. Preparation of the test sample: the test compound was dissolved in DMSO, and diluted in gradient to obtain 3000, 600, 120, 24, 4.8 μM stock solutions; each stock solution was mixed with the human plasma as prepared under item 1 at a ratio of 1:49 (V/V).
3. Negative control: DMSO solvent without the test compound was diluted in gradient to obtain 3000, 600, 120, 24, 4.8 μM stock solutions; each stock solution was mixed with the human plasma as prepared under item 1 at a ratio of 1:49 (V/V).
4. Test: After mixing the test solution of the above test sample and that of the negative control separately for 3 to 5 minutes, 30 μL of the test solution was added to the machine (MC-2000 coagulometer), and pre-warmed at 37° C. for 2 min; 30 μL of APTT reagent (MDC Hemostasis, Cat: 300025) was added and incubated at 37° C. for 5 min; and then 30 μL CaCl2 was added to initiate the APTT measurement.
According to the measured APTT result, APTT ratio was calculated according to the following formula. APTT ratio=(APTTtest compound/APTTnegative control).
Exponential equation was used to fit the Lg (concentration) to APTT ratio (Origin Pro 8.5.1 SR2), the drug working concentrations at 1.5 times APTT ratio and 2 times APTT ratio were calculated, namely EC150 and EC200.

[2] = drug working concentration at 1.5 times APTT ratio, read-out: EC150
[3] = drug working concentration at 2 times APTT ratio, read-out: EC200

Sequence of human FXIa protein (hFXIa) (P03951 388-625): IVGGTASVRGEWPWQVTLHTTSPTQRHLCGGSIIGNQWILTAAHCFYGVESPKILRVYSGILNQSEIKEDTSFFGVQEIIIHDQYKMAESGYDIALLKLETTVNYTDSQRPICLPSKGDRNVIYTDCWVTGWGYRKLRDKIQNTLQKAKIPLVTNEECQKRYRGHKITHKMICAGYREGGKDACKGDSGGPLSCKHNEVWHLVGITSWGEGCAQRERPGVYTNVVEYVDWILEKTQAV
Sequence of human FXIa protein (hFXIa) (P03951 19-387 partner): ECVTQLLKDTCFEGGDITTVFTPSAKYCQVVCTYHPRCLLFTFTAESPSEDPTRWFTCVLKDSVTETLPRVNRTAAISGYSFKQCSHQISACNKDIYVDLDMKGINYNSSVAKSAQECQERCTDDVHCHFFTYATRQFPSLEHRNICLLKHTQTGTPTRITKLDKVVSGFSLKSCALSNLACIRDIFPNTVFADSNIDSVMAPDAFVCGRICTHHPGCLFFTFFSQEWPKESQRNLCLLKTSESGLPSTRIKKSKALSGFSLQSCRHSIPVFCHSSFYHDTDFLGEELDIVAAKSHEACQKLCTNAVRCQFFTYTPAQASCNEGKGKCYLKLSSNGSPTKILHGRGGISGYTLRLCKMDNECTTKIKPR

| Compound | IC50 [1] | concentration giving fixed-fold APTT prolongation (human plasma; [2]) | concentration giving fixed-fold APTT prolongation (human plasma; [3]) |
| --- | --- | --- | --- |
| N#Cc1ccc2c(c1)CCN2C(=O)N1C(=O)[C@H](Cc2ccnc(N)c2)[C@H]1C(=O)O [Example 13] | 23.2 nM |  |  |
| Nc1cc(C[C@H]2C(=O)N(C(=O)N3CCC[C@H](c4ccccc4)C3)[C@@H]2C(=O)O)ccn1 [Example 16] | 1.89 nM | 1.41 µM | 6.99 µM |
| CS(=O)(=O)NC(=O)[C@@H]1[C@@H](Cc2ccnc(N)c2)C(=O)N1C(=O)N1CCCCC1c1ccccc1 (stereo partly shown) [Example 18] | 10.7 nM |  |  |
| CNC(=O)[C@@H]1[C@@H](Cc2ccnc(N)c2)C(=O)N1C(=O)N1CCCCC1c1ccccc1 (stereo partly shown) [Example 19] | 5.99 nM |  |  |
| CN(C)C(=O)[C@@H]1[C@@H](Cc2ccnc(N)c2)C(=O)N1C(=O)N1CCCCC1c1ccccc1 (stereo partly shown) [Example 20] | 10.8 nM |  |  |
| CNC(=O)[C@@H]1[C@@H](Cc2ccnc(N)c2)C(=O)N1C(=O)N1CCC[C@H](c2ccccc2)C1 [Example 23] | 1.5 nM | 1.48 µM | 4.4 µM |
| CN(C)C(=O)[C@@H]1[C@@H](Cc2ccnc(N)c2)C(=O)N1C(=O)N1CCC[C@H](c2ccccc2)C1 [Example 24] | 3.6 nM |  |  |
| CS(=O)(=O)NC(=O)[C@@H]1[C@@H](Cc2ccnc(N)c2)C(=O)N1C(=O)N1CCC[C@H](c2ccccc2)C1 [Example 25] | 3.2 nM |  |  |
| Nc1cc(C[C@H]2C(=O)N(C(=O)N3CCCC(c4ccc5c(c4)OC(F)(F)O5)C3)[C@@H]2C(=O)O)ccn1 (stereo partly shown) [Example 26] | 11.1 nM |  |  |
| Cn1cc(C2CCCN(C(=O)N3C(=O)[C@H](Cc4ccnc(N)c4)[C@H]3C(=O)O)C2)cn1 (stereo partly shown) [Example 28] | 23.1 nM |  |  |
| CNC(=O)[C@@H]1[C@@H](Cc2ccnc(N)c2)C(=O)N1C(=O)N1CCCC(c2ccc(F)cc2)C1 (stereo partly shown) [Example 30] | 2.4 nM |  |  |
| NC(=O)[C@@H]1[C@@H](Cc2ccnc(N)c2)C(=O)N1C(=O)N1CCC[C@@H](c2ccccc2)C1 [Example 31] | 2.8 nM |  |  |
| NC(=O)[C@@H]1[C@@H](Cc2ccnc(N)c2)C(=O)N1C(=O)N1CCCC(c2ccc3c(c2)OC(F)(F)O3)C1 (stereo partly shown) [Example 32] | 4.1 nM |  |  |
| CNC(=O)[C@@H]1[C@@H](Cc2ccnc(N)c2)C(=O)N1C(=O)N1CCCC(c2ccc3c(c2)OC(F)(F)O3)C1 (stereo partly shown) [Example 33] | 3.5 nM |  |  |
| CNC(=O)[C@@H]1[C@@H](Cc2ccnc(N)c2)C(=O)N1C(=O)N1CCC[C@@H](c2ccccc2)C1 [Example 41] | 4.1 nM | 2.18 µM | 8.22 µM |
| COC(=O)Nc1cccc(C2CCCN(C(=O)N3C(=O)[C@H](Cc4ccnc(N)c4)[C@H]3C(=O)O)C2)c1 (stereo partly shown) [Example 42] | 9.1 nM |  |  |
| CNC(=O)[C@@H]1[C@@H](Cc2ccnc(N)c2)C(=O)N1C(=O)N1CCCC(C2CCCCCCC2)C1 (stereo partly shown) [Example 45] | 5.3 nM |  |  |
| Nc1cc(C[C@H]2C(=O)N(C(=O)N3CCCC(c4cccc5ccccc45)C3)[C@@H]2C(=O)O)ccn1 (stereo partly shown) [Example 46] | 7.7 nM |  |  |
| CNC(=O)[C@@H]1[C@@H](Cc2ccnc(N)c2)C(=O)N1C(=O)N1CCCC(c2ccccc2)C1 (stereo partly shown) [Example 51] | 3.3 nM |  |  |
